Source: the supplement of paper PMC10331698
± gives the standard deviation of the averaged measurements.

Experiments:
Assay in all cases: level (log10 ratio to DMSO vehicle control); higher = higher biomarker level / cell amount than vehicle control
[1] = compound: O=C(O)C(F)(OC(F)(F)C(F)(OC(F)(F)C(F)(OC(F)(F)C(F)(F)C(F)(F)F)C(F)(F)F)C(F)(F)F)C(F)(F)F [Perfluoro-(2,5,8-trimethyl-3,6,9-trioxadodecanoic)acid] (in DMSO)
Experimental: (§1)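 BioMAP Diversity Plus panel of 12 human primary cell co-culture systems (3C, 4H, LPS, SAg, BT, BF4T, BE3C, CASM3C, HDF3CGF, KF3CT, MyoF, Mphg). Compounds were added 1 h before stimulation and left for 24 h (MyoF 48 h; BT 72 h for soluble read-outs or 6 d for IgG). Biomarkers were read by ELISA, cytotoxicity by SRB, PBMC viability and proliferation by Alamar Blue. Each well value was divided by the mean of 8 DMSO control wells on the same plate and log10 transformed; duplicate blinded samples were tested at 4 concentrations.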

[2] = compound: O=S(=O)(O)CCC(F)(F)C(F)(F)C(F)(F)C(F)(F)C(F)(F)C(F)(F)C(F)(F)C(F)(F)F [8:2 Fluorotelomer sulfonic acid] (in DMSO)
Experimental: as §1

[3] = compound: OCC(F)(F)OC(F)(F)C(F)(F)OC(F)(F)C(F)(F)OC(F)(F)CO [1H,1H,11H,11H-Perfluorotetraethylene glycol] (in DMSO)
Experimental: as §1

[4] = compound: CO[Si](C)(CCC(F)(F)C(F)(F)C(F)(F)C(F)(F)C(F)(F)C(F)(F)F)OC [Dimethoxymethyl((perfluorohexyl)ethyl)silane] (in DMSO)
Experimental: as §1

[5] = compound: C[C@@H]1C[C@H]2[C@@H]3CCC4=CC(=O)C=C[C@]4(C)[C@@]3(F)[C@@H](O)C[C@]2(C)[C@@]1(O)C(=O)COP(=O)(O)O [Dexamethasone sodium phosphate] (in DMSO)
Experimental: as §1

[6] = compound: OCCC(F)(F)C(F)(F)C(F)(F)C(F)(F)F [4:2 Fluorotelomer alcohol] (in DMSO)
Experimental: as §1

Row | Test System | level (log10) ([1]; 1100 nM) | level (log10) ([1]; 3300 nM) | level (log10) ([1]; 10000 nM) | level (log10) ([2]; 6700 nM) | level (log10) ([2]; 20000 nM) | level (log10) ([2]; 60000 nM) | level (log10) ([3]; 6700 nM) | level (log10) ([3]; 20000 nM) | level (log10) ([3]; 60000 nM) | level (log10) ([4]; 6700 nM) | level (log10) ([4]; 20000 nM) | level (log10) ([5]; 1500 nM) | level (log10) ([5]; 4400 nM) | level (log10) ([5]; 13000 nM) | level (log10) ([5]; 40000 nM) | level (log10) ([6]; 6700 nM) | level (log10) ([6]; 20000 nM) | level (log10) ([6]; 60000 nM)
1 | BF4T:IL-1alpha | -0.005 ± 0.0099 | -0.0105 ± 0.00071 | -0.0025 ± 0.0035 | 0.004 ± 0.016 | -0.01 ± 0.014 | 0.0065 ± 0.018 | 0.0095 ± 0.012 | -0.002 ± 0.025 | 0.003 ± 0.051 | -0.0245 ± 0.0078 | 0.014 ± 0.035 | 0.0045 ± 0.028 | -0.001 ± 0.013 | -0.0165 ± 0.013 | 0.004 ± 0.023 | -0.0245 ± 0.028 | 0.004 ± 0.0028 | 0.0055 ± 0.016
2 | BF4T:Keratin 8/18 | 0.024 ± 0.0099 | 0.0055 ± 0.022 | 0.018 ± 0.0099 | 0.004 ± 0.0099 | -0.0005 ± 0.018 | 0.0245 ± 0.0078 | -0.0025 ± 0.012 | -0.005 ± 0.0057 | -0.0335 ± 0.015 | 0.029 ± 0.034 | 0.006 ± 0.016 | 0.011 ± 0.047 | -0.0015 ± 0.013 | -0.0105 ± 0.019 | -0.0025 ± 0.015 | -0.026 ± 0.021 | -0.0185 ± 0.039 | 0.017 ± 0.0028
3 | BF4T:MMP-1 | 0.0005 ± 0.0092 | -0.0045 ± 0.011 | 0.0065 ± 0.018 | 0.005 ± 0.0085 | -0.002 ± 0.0071 | 0.0035 ± 0.0021 | -0.0025 ± 0.016 | 0.0005 ± 0.018 | 0.0065 ± 0.046 | -0.01 ± 0.054 | 0.0085 ± 0.023 | 0.006 ± 0.0014 | -0.012 ± 0.013 | -0.0215 ± 0.0092 | -0.0125 ± 0.0021 | -0.008 ± 0.031 | -0.0005 ± 0.036 | 0.0085 ± 0.015
4 | BF4T:MMP-3 | -0.01 ± 0.0014 | -0.01 ± 0.014 | 0.015 ± 0.017 | -0.0095 ± 0.043 | 0.027 ± 0.034 | 0.0755 ± 0.0078 | 0.0035 ± 0.016 | 0.012 ± 0.0028 | -0.011 ± 0.013 | 0.0005 ± 0.0035 | -0.015 ± 0.0099 | 0.0565 ± 0.083 | 0.006 ± 0.061 | -0.03 ± 0.05 | 0.0185 ± 0.033 | -0.0135 ± 0.021 | -0.008 ± 0.013 | -0.011 ± 0.014
5 | BF4T:MMP-9 | 0.0045 ± 0.015 | -0.003 ± 0.0028 | 0.0135 ± 0.00071 | 0.0065 ± 0.015 | -0.003 ± 0.0014 | -0.0215 ± 0.005 | -0.007 ± 0.013 | -0.004 ± 0.013 | -0.0405 ± 0.033 | -0.0065 ± 0.037 | -0.001 ± 0.017 | 0.051 ± 0.041 | 0.026 ± 0.037 | 0.0035 ± 0.046 | 0.0225 ± 0.063 | -0.0075 ± 0.03 | -0.013 ± 0.0071 | -0.011 ± 0.031
6 | BF4T:PAI-I | 0.011 ± 0.0071 | -0.0025 ± 0.0092 | 0.006 ± 0.018 | 0.005 ± 0.0099 | 0.002 ± 0.011 | 0.009 ± 0.0042 | -0.0035 ± 0.0092 | -0.0335 ± 0.00071 | -0.069 ± 0.016 | -0.008 ± 0.013 | -0.0145 ± 0.0021 | -0.0005 ± 0.022 | 0.01 ± 0.013 | 0.001 ± 0.018 | 0.0085 ± 0.0021 | -0.0075 ± 0.023 | 0.0005 ± 0.035 | 0.0005 ± 0.00071
7 | BF4T:SRB | -0.0035 ± 0.00071 | -0.0035 ± 0.011 | 0.003 ± 0.023 | 0.0035 ± 0.015 | -0.002 ± 0.013 | -0.0005 ± 0.0078 | -0.0035 ± 0.0021 | -0.0065 ± 0.0021 | -0.0345 ± 0.033 | -0.0055 ± 0.005 | -0.0045 ± 0.005 | 0.0155 ± 0.0078 | 0.0005 ± 0.0064 | 0.01 ± 0.013 | 0.0135 ± 0.016 | -0.0075 ± 0.00071 | -0.0105 ± 0.0078 | -0.0045 ± 0.012
8 | BF4T:tPA | -0.012 ± 0.02 | -0.012 ± 0.0042 | -0.0035 ± 0.021 | -0.0045 ± 0.028 | -0.0525 ± 0.0021 | -0.0465 ± 0.016 | -0.036 ± 0.0028 | -0.0685 ± 0.043 | -0.201 ± 0.035 | 0.0005 ± 0.023 | -0.015 ± 0.0028 | 0.0375 ± 0.05 | 0.01 ± 0.034 | 0.0145 ± 0.016 | 0.027 ± 0.021 | -0.0085 ± 0.056 | -0.0155 ± 0.071 | 0.022
